Converted amounts (≈) assume the structure as drawn.

A short description of one data set: Aqueous solubility. It is filed as physicochemical. To be noted: NEU; for solubility: thermodynamic from solid, read-out: Aqueous Solubility (NEU).
Data set [1] has as its system Enterococcus faecalis ATCC 51299 (vanA-positive; vancomycin-resistant). Kind of data set: In vitro antibacterial activity, MIC (UCL), VRE. The settings on record: read-out: VRE MIC (UCL). It is filed as cell-based. Summed up:
(§1)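 Broth microdilution in isosensitest broth; inoculum from overnight tryptone soya agar culture adjusted to A600 0.1 (~1 × 10^8 CFU/mL) then diluted 1:100. Compounds tested as 2-fold series, 32 to 0.03 μg/mL, DMSO at most 2%; vancomycin as quality control.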

Data set [2] can be described thus: Human plasma protein binding (PPB). The class given is in vitro ADME. The settings on record: human, plasma, human plasma, NEU; read-out: Human PPB (NEU) (converted).
Data set [3] can be described thus: Human liver microsome intrinsic clearance. The class given is in vitro ADME. To be noted: human liver microsomes, NEU; for microsomal CLint: read-out: HLM CLint (NEU). A general note: Liver microsomes are a subcellular fraction often used to study metabolism.
Data set [4] can be described thus: Rat hepatocyte intrinsic clearance. It is filed as in vitro ADME. To be noted: rat hepatocytes, NEU; for hepatocyte CLint: read-out: Rat Hep CLint (NEU).
Data set [5] deals with Staphylococcus aureus NCTC 13373 (mecA-positive; methicillin-resistant). Kind of data set: In vitro antibacterial activity, MIC (UCL School of Pharmacy assay), MRSA. It is filed as cell-based. To be noted: Staphylococcus aureus, UCL; read-out: MRSA MIC (UCL). Summed up: as §1
The nature of another data set: LogD7.4 (Chrom Log D). It is filed as physicochemical. To be noted: chromatographic system (Chrom Log D); pH 7.4, NEU; read-out: LogD 7.4 (NEU). An excerpt:
To guide our initial SAR exploration work, we obtained liver microsomal intrinsic clearance data for 5 of the 18 compounds assayed by CO-ADD (Supporting Information - CDCO Report and Supporting Information - Biology). We then acquired intrinsic clearance (CLint), plasma protein binding (PPB), and solubility data on further compounds throughout the SAR campaign (Supporting Information - Biology, Tables S3 and S4). […] The more polar compounds (lower LogD) had reduced PPB and were more metabolically stable.
Table S4. ADME and Pharmacokinetics: compounds only appearing in the Supplementary […]
MRSA Aqueous HLM CLint Rat Hep CLint
Cmpd MIC Solubility Human PPB (%) (µL/min/mg (µL/min/10x6 LogD7.4
(µg/mL) (µM) protein) cells)
(§2) ADME and toxicity for compounds were measured according to procedures outlined in the manuscript submitted in parallel to this one;2 other procedures were used for those compounds analysed by Monash University (in vitro ADME) or UCL (toxicity), both described in the main

In data set [6] the test system is MRC-5SV2 (human lung fibroblast cell line). Kind of data set: Toxicity against MRC-5SV2. It is filed as cell-based. To be noted: MRC5 cells. As for the experimental part: as §2
The subject of data set [7] is S. aureus ATCC 25923 (methicillin-susceptible). Kind of data set: In vitro antibacterial activity, MIC (UCL), MSSA. It is filed as cell-based, Staphylococcus aureus. The settings on record: Staphylococcus aureus; read-out: MSSA MIC (UCL). Summed up:
as §1

Data set [8] has as its system PMM (primary mouse macrophages). Kind of data set: Toxicity against PMM. The class given is cell-based. The settings on record: PMM. As for the experimental part:
as §2

The test system of another data set is VSE. Kind of data set: In vitro antibacterial activity, MIC, VSE. It is filed as cell-based. The settings on record: read-out: VSE MIC (UCL).

As to `Cc1ccc(-c2c(-c3ccccn3)nc3cc(Cl)ccn23)cc1` [OSA_000978], the “Aqueous Solubility (NEU)” value in “Aqueous solubility” amounted to 5 µM. In addition, the figures for the MIC in data set [1] and in data set [5] were 8 µg/mL (≈ 25 µM) and 4 µg/mL (≈ 12.5 µM), respectively. For the same compound, in [2], the fraction unbound was 0.0055. Further, the “HLM CLint (NEU)” value in data set [3] was determined as 65.6 uL/min/mg protein. Further, the “Rat Hep CLint (NEU)” value in data set [4] is recorded as 104 uL/min/10x6 cells. For the same compound, the chromatographic logD in the data set “LogD7.4 (Chrom Log D)” stood at 3.1.
As to `Fc1ccc(Nc2c(-c3ccccn3)nc3sccn23)cc1` [OSA_000984], in “Aqueous solubility”, the solubility came out at 54 µM (≈ 16.8 µg/mL). Moreover, the figures for the MIC in data set [1], in data set [7] and in data set [5] were 8 µg/mL (≈ 25.8 µM), 4 µg/mL (≈ 12.9 µM) and 8 µg/mL (≈ 25.8 µM), respectively. Also, in [2], the fraction unbound is 0.014. Also, the hepatocyte CLint in data set [4] was greater than 300 µL/min/1e6 cells. For the same compound, the “MRC5 TC50” value in data set [6] is 6.4 µM. In addition, the chromatographic logD in “LogD7.4 (Chrom Log D)” was 0.9. In addition, the “PMM TC50” value in data set [8] stood at 32 µM.
In the case of `Cc1ccc(Nc2c(-c3ccccn3)nc3ccccn23)cc1` [OSA_000988], the MIC was determined as 16 µg/mL (≈ 53.3 µM) in [1], 16 µg/mL (≈ 53.3 µM) with VSE, 4 µg/mL (≈ 13.3 µM) in data set [7] and 4 µg/mL (≈ 13.3 µM) in data set [5]. For the same compound, the fraction unbound in data set [2] was 0.007. Further, the microsomal CLint in [3] was found to be 86.9 µL/min/mg. Further, the hepatocyte CLint in data set [4] was greater than 300 µL/min/1e6 cells.
Turning to `COc1ccc(-c2nc3ccc(OC)cn3c2N(C)c2ccc(F)cc2)nc1` [OSA_000999], the solubility in the data set “Aqueous solubility” stood at 27 µM (≈ 10.2 µg/mL). Also, the MIC was found to be 16 µg/mL (≈ 42.3 µM) in data set [1], 16 µg/mL (≈ 42.3 µM) in the data set with VSE, 8 µg/mL (≈ 21.1 µM) in [7] and 8 µg/mL (≈ 21.1 µM) in [5]. The fraction unbound in data set [2] is 0.0063. The “HLM CLint (NEU)” value in data set [3] was found to be 261 uL/min/mg protein. The hepatocyte CLint in data set [4] is greater than 300 µL/min/1e6 cells.
Turning to `COc1cccn2c(N(C)c3ccc(F)cc3)c(-c3ccccn3)nc12` [OSA_001001], the solubility in the data set “Aqueous solubility” was 26 µM (≈ 9.06 µg/mL). In addition, in [2], the fraction unbound was 0.026. Moreover, the microsomal CLint in [3] turned out to be 65.9 µL/min/mg. Besides, the hepatocyte CLint in [4] is greater than 300 µL/min/1e6 cells. The minimal inhibitory concentration (MIC) in data set [7] and in [5] was 16 µg/mL (≈ 45.9 µM) in each case. Further, the chromatographic logD in the data set “LogD7.4 (Chrom Log D)” is 3.5.
For `CN(c1ccc(F)cc1)c1c(-c2ccccn2)nc2ccc(Br)cn12` [OSA_001003], in the data set “Aqueous solubility”, the solubility was 4 µM (≈ 1.59 µg/mL). Moreover, the fraction unbound in [2] is 0.0018. For the same compound, in data set [3], the microsomal CLint is 61.6 µL/min/mg. The hepatocyte CLint in data set [4] was greater than 300 µL/min/1e6 cells. Besides, the MIC in [7] and in [5] was 16 µg/mL (≈ 40.3 µM) each time. Moreover, in “LogD7.4 (Chrom Log D)”, the chromatographic logD was found to be 4.2.
Take `CSc1ccc2nc(-c3ccccn3)c(N(C)c3ccc(F)cc3)n2c1` [OSA_001004]: the solubility in “Aqueous solubility” stood at 7 µM (≈ 2.55 µg/mL). In data set [2], the fraction unbound is 0.0054. Also, in [3], the microsomal CLint was greater than 300 µL/min/mg. In addition, in data set [4], the hepatocyte CLint was greater than 300 µL/min/1e6 cells. Besides, the MIC in data set [7] and in data set [5] was 8 µg/mL (≈ 22 µM) in each case. Also, the chromatographic logD in the data set “LogD7.4 (Chrom Log D)” is 4.5.
With `CN(c1ccc(F)cc1)c1c(-c2ccccn2)nc2cccc(F)n12` [OSA_001005], the solubility in “Aqueous solubility” stood at 64 µM (≈ 21.5 µg/mL). Besides, the fraction unbound in data set [2] was 0.035. The microsomal CLint in data set [3] came out at 79.3 µL/min/mg. Further, the hepatocyte CLint in [4] is greater than 300 µL/min/1e6 cells. For the same compound, the MIC in data set [7] and in [5] was 32 µg/mL (≈ 95.1 µM) in each case. Further, in “LogD7.4 (Chrom Log D)”, the chromatographic logD turned out to be 1.8.
With `CN(c1ccc(F)cc1)c1c(-c2ccccn2)nc2c(F)cccn12` [OSA_001006], the solubility in “Aqueous solubility” came out at 26 µM (≈ 8.74 µg/mL). Further, the fraction unbound in data set [2] is 0.034. Also, the microsomal CLint in [3] was found to be 127 µL/min/mg. Also, in [4], the hepatocyte CLint worked out at 209 µL/min/1e6 cells. The MIC in [7] and in data set [5] was greater than 32 µg/mL throughout. The chromatographic logD in “LogD7.4 (Chrom Log D)” amounted to 3.3.

For orientation: MIC means the lowest concentration found to suppress growth. What is called solubility is the concentration that dissolves in the medium under given conditions.

Values taken from paper PMC10714399, “Open Source Antibiotics: Simple Diarylimidazoles Are Potent against Methicillin-Resistant Staphylococcus aureus” (ACS Infectious Diseases, 2023).
